This note sets out measurements from ChEMBL document CHEMBL1201862, “PubChem BioAssay data set” (2004).

Structures are written as SMILES.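 Five concentrations, 48 hours, 96-well plates. GI50 marks 50% less growth.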 Activity calls are given as the source filed them. No stated cut-off is given here; in the data, active = GI50 up to about 1.1 µM and inactive = higher.

What all share (assay): inhibition of tumour cell growth, NCI panel, 48 h
In assay [1] the test system is CCRF-CEM.
The test system of assay [2] is HCT-116.
Assay [3] has as its system HOP-92.
For assay [4], the system named is 786-0.
Assay [5] deals with RPMI-8226.
The test system of assay [6] is U-251.
The test system of assay [7] is OVCAR-5.
Assay [8] concerns ACHN.
In assay [9] the test system is MCF7.
Assay [10] deals with SF-268.
The subject of assay [11] is DU-145.
For assay [12], the system named is SF-295.
The test system of assay [13] is HT-29.
In assay [14] the test system is Hs-578T.
The test system of assay [15] is TK-10.
Assay [16] has as its system A498.
In assay [17] the test system is COLO 205.
The test system of assay [18] is SNB-19.
Assay [19] deals with BT-549.

In the case of `CSc1ccc(/C=C/c2ccnc3ccccc23)cc1`, the GI50 in assay [1] was 17.9 µM (inactive); in [2], 10.5 µM (inactive); in [3], 16.4 µM (inactive); in [4] it was 14.8 µM (inactive); in assay [5], 8.43 µM (inactive); in assay [6], 12.8 µM (inactive). Also, the GI50 is 17.7 µM (inactive) in assay [7]; 14.1 µM (inactive) in assay [8]; 13.6 µM (inactive) in [9]; 26 µM (inactive) in [10]; 13.9 µM (inactive) in [11]; 14.4 µM (inactive) in [12]. The GI50 in [13] is 14 µM (inactive); in [14], 20.9 µM (inactive); in assay [15], 13.9 µM (inactive); in assay [16] it was 15.5 µM (inactive); in assay [17], 11.3 µM (inactive); in assay [18] it was 17.7 µM (inactive).

`COc1ccc2c(c1)CC[C@@H]1C2CC[C@]2(C)C(=C=CP(=O)(O)O)CCC12` (some centres undefined): the GI50 in assay [2] is > 100 µM (inactive); in [3], > 100 µM (inactive); in [4], > 100 µM (inactive); in assay [5], < 0.01 µM (active); in assay [6], > 100 µM (inactive); in [7], > 100 µM (inactive). Besides, the GI50 in [8] is > 100 µM (inactive); in assay [9], 79.6 µM (inactive); in assay [10], > 100 µM (inactive); in [11], > 100 µM (inactive); in assay [12], > 100 µM (inactive); in assay [13], > 100 µM (inactive). In addition, the GI50 in assay [14], in assay [15], in assay [16], in assay [17] and in assay [18] was > 100 µM (inactive) in each case.

Regarding `O=C(O)CCc1ccc2c(c1)C(=O)CC2`, the GI50 in assay [19], in assay [1], in [2], in assay [4], in assay [5] and in assay [6] was > 100 µM (inactive) throughout. Moreover, the GI50 in [7], in [8], in assay [9], in assay [10], in [11] and in [12] was > 100 µM (inactive) in each case. For the same compound, the GI50 in assay [13], in assay [15], in assay [16], in assay [17] and in assay [18] was > 100 µM (inactive) each time.

Turning to `O=C1OC2(CCCCC2)C(Oc2ccc(Cl)cc2)=C1F`, the GI50 in assay [1] is 29.7 µM (inactive); in [2] it was 35.7 µM (inactive); in assay [3], 20.4 µM (inactive); in [4], 48.3 µM (inactive); in [5], 32.7 µM (inactive); in assay [6], 61.8 µM (inactive). For the same compound, the GI50 in [7] was 74 µM (inactive); in assay [8], 45.4 µM (inactive); in [9], 37.8 µM (inactive); in assay [10], 54 µM (inactive); in [11], 92.9 µM (inactive); in [12], 45.4 µM (inactive). For the same compound, the GI50 in [13] was 26.8 µM (inactive); in [14], 50 µM (inactive); in [15], 85.1 µM (inactive); in [16] it was 47.3 µM (inactive); in assay [17], 26.5 µM (inactive); in assay [18] it was 88.7 µM (inactive).

With `c1csc(-c2ccc(-c3cccc4nsnc34)s2)c1`, the GI50 in [19] is > 100 µM (inactive); in assay [1], 20.2 µM (inactive); in assay [2], 94.8 µM (inactive); in assay [4], 39.5 µM (inactive); in [5] it was 85.3 µM (inactive); in assay [6] it was 91.2 µM (inactive). Besides, the GI50 was 71.1 µM (inactive) in assay [7]; > 100 µM (inactive) in assay [8]; 14.7 µM (inactive) in [9]; > 100 µM (inactive) in assay [10]; > 100 µM (inactive) in assay [11]; 44.8 µM (inactive) in [12]. Besides, the GI50 was 70.5 µM (inactive) in [15], > 100 µM (inactive) in assay [16], > 100 µM (inactive) in [17] and > 100 µM (inactive) in [18].

Consider `CCNCC(=O)Nc1ccc2c(c1)C(=O)c1ccc(NC(=O)CNCC)cc1C2=O`, for which the GI50 is 2.9 µM (inactive) in assay [1]; 1.44 µM (inactive) in [2]; 3.38 µM (inactive) in assay [3]; 2.14 µM (inactive) in assay [4]; 1.72 µM (inactive) in [6]; 3.01 µM (inactive) in [7]. Moreover, the GI50 in [8] is 1.92 µM (inactive); in [9] it was 1.64 µM (inactive); in assay [10], 3.27 µM (inactive); in [11], 2.69 µM (inactive); in [12], 3.33 µM (inactive); in assay [13], 2.45 µM (inactive). The GI50 in [14] is 4.02 µM (inactive); in assay [15] it was 5.22 µM (inactive); in [16] it was 2.62 µM (inactive); in [17], 1.71 µM (inactive); in assay [18], 2.7 µM (inactive).

`CCn1c2ccccc2c(=O)c2c(OC)ccc(OC)c21`: the GI50 in [1] is 48 µM (inactive); in assay [2], 51.1 µM (inactive); in assay [3] it was 39 µM (inactive); in [4], 51.3 µM (inactive); in assay [5], 35.5 µM (inactive); in assay [6], 64.6 µM (inactive). Moreover, the GI50 was > 61.7 µM (inactive) in assay [7]; 35.9 µM (inactive) in assay [8]; 83.9 µM (inactive) in assay [10]; 53.8 µM (inactive) in assay [12]; 64.3 µM (inactive) in assay [13]; 25.4 µM (inactive) in [16]. Also, the values for the GI50 in [17] and in assay [18] were 55.7 µM (inactive) and 49.9 µM (inactive), respectively.

For `Cc1ncc(COP(=O)(O)O)c(/C=C2\SC(=S)NC2=O)c1O`, the GI50 in assay [19] is > 100 µM (inactive); in assay [2] it was > 100 µM (inactive); in [3] it was > 74.5 µM (inactive); in assay [4], > 100 µM (inactive); in [5], > 100 µM (inactive); in assay [6], > 100 µM (inactive). Moreover, the GI50 was > 100 µM (inactive) in assay [7]; > 100 µM (inactive) in assay [8]; > 100 µM (inactive) in assay [9]; > 100 µM (inactive) in assay [10]; > 100 µM (inactive) in assay [11]; > 22.3 µM (inactive) in assay [12]. Further, the GI50 in [13], in [15], in assay [16], in assay [17] and in assay [18] was > 100 µM (inactive) in each case.
